The target in one assay is T1, chimeric human H3 receptor (Homo sapiens, UniProt Q9Y5N1).
T1 construct: made in house; host or cells: Sf9 insect cells (baculovirus); P2 membrane preparation
T1 sequence (Q9Y5N1 with tags, fused parts or gaps): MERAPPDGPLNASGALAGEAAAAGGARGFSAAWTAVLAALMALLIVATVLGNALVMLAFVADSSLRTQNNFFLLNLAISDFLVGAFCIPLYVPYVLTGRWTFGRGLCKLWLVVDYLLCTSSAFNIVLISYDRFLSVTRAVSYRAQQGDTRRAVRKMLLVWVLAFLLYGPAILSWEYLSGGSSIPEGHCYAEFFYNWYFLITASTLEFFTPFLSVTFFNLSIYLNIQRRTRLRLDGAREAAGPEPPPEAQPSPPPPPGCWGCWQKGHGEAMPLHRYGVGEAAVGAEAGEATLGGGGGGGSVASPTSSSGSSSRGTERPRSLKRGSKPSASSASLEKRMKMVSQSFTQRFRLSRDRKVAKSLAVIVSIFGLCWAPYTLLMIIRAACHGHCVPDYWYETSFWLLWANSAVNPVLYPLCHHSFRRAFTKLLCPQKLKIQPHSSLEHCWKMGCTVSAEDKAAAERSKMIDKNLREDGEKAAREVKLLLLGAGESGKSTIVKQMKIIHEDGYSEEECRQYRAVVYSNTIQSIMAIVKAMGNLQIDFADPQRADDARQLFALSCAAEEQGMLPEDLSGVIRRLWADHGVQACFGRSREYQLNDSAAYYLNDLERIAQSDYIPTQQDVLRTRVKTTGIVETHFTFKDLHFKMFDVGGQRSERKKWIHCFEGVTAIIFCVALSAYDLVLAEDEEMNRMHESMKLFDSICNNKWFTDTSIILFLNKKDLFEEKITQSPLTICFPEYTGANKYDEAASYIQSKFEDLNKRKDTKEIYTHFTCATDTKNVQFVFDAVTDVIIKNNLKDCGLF
Nature of the assay: Chimeric human H3 receptor GTP binding assay (agonist-stimulated GTP-gamma35S binding, Example 7). The assay is classed as biochemical. Conditions: Table I; P2 membranes of Sf9 cells, 1 μM histamine as agonist, Ki from IC50 by Cheng-Prusoff. A digest of the protocol: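 Sf9 membranes co-expressing chimeric human H3 receptor and heterotrimeric G-protein, 35 μg/tube, in pH 7.4 Tris buffer with 10 μM GDP. Test compounds (10^−10–10^−6 M) competed against 1 μM histamine, […] GTP-gamma35S, 60 min at room temperature. Filter-bound radioactivity counted; IC50 converted to Ki by Cheng-Prusoff. Agonism/inverse agonism tested without histamine (EC50).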
For orientation: GTPγS resists hydrolysis and so accumulates on activated G proteins.
Turning to `CC(C)N1CCN(C(=O)CN2CCc3ccccc3C2CC2CCCC2)CC1` (stereo not drawn) [Compound 54, 1-(cyclopentylmethyl)-2-[2-(4-isopropylpiperazin-1-yl)-2-oxoethyl]-1,2,3,4-tetrahydroisoquinoline], the Ki (commonly a measure of affinity in units of concentration, obtained from inhibition or displacement) is less than 1 µM.

Staying with this assay, now noted: Table II "Ki", symbol *; assay of Example 7.
Consider `O=C(CN1CCc2nc(NC3CCC3)ccc2C1)N1CCN(C2CCC2)CC1` [Compound 654, N-cyclobutyl-6-[2-(4-cyclobutylpiperazin-1-yl)-2-oxoethyl]-5,6,7,8-tetrahydro-1,6-naphthyridin-2-amine], for which the Ki was less than 1 µM.

With `COc1cc(-c2ccc3c(c2)CCN(CC(=O)N2CCN(C4CCC4)CC2)C3)cc(OC)c1OC` [Compound 516, 2-[2-(4-cyclobutylpiperazin-1-yl)-2-oxoethyl]-6-(3,4,5-trimethoxyphenyl)-1,2,3,4-tetrahydroisoquinoline], the Ki is less than 1 µM.

On to `COc1cc(-c2ccc3c(c2)CCN(CC(=O)N2CCN(C4CCC4)CC2)C3)nc(OC)n1` [Compound 635, 2-[2-(4-cyclobutylpiperazin-1-yl)-2-oxoethyl]-6-(2,6-dimethoxypyrimidin-4-yl)-1,2,3,4-tetrahydroisoquinoline], for which the Ki was less than 1 µM.

In the case of `COCc1ccc(-c2ccc3c(c2)CCN(CC(=O)N2CCN(C4CCC4)CC2)C3)nc1` [Compound 646, 2-[2-(4-cyclobutylpiperazin-1-yl)-2-oxoethyl]-6-[5-(methoxymethyl)pyridin-2-yl]-1,2,3,4-tetrahydroisoquinoline], the Ki is less than 1 µM.

The same assay, now with this note: Table II; "*" = Ki in assay of Example 7 less than 1 micromolar.
For the compound `O=C(CN1CCc2nc(N3CCCCC3)ncc2C1)N1CCN(C2CCCC2)CC1` [Compound 156, 6-[2-(4-cyclopentylpiperazin-1-yl)-2-oxoethyl]-2-piperidin-1-yl-5,6,7,8-tetrahydropyrido[4,3-d]pyrimidine], the Ki is less than 1 µM.

On to `CC1CCC[C@H]2CN(C(=O)CN3CCc4nc(-c5cncnc5)ccc4C3)CCN12` (stereo in doubt) [Compound 177, 6-[2-(6-methyloctahydro-2H-pyrido[1,2-a]pyrazin-2-yl)-2-oxoethyl]-2-pyrimidin-5-yl-5,6,7,8-tetrahydro-1,6-naphthyridine], for which the Ki is less than 1 µM.

For `O=C(CN1CCc2nn(-c3cncnc3)cc2C1)N1CCN(C2CCC2)CC1` [Compound 252, 5-[2-(4-cyclobutylpiperazin-1-yl)-2-oxoethyl]-2-pyrimidin-5-yl-4,5,6,7-tetrahydro-2H-pyrazolo[4,3-c]pyridine], the Ki was less than 1 µM.

As to `O=C(CN1CCc2cc(-c3ncccn3)ccc2C1)N1CCN(C2CCC2)CC1` [Compound 131, 2-[2-(4-cyclobutylpiperazin-1-yl)-2-oxoethyl]-6-pyrimidin-2-yl-1,2,3,4-tetrahydroisoquinoline], the Ki is less than 1 µM.

Consider `CCC1CCC[C@H]2CN(C(=O)CN3CCc4cc(C(C)=O)ccc4C3)CCN12` (stereo in doubt) [Compound 163, 1-{2-[2-(6-ethyloctahydro-2H-pyrido[1,2-a]pyrazin-2-yl)-2-oxoethyl]-1,2,3,4-tetrahydroisoquinolin-6-yl}ethanone], for which the Ki is less than 1 µM.

For `O=C(CN1CCc2nc(N3CCCC3)ncc2C1)N1CCN(C2CCC2)CC1` [Compound 204, 6-[2-(4-cyclobutylpiperazin-1-yl)-2-oxoethyl]-2-pyrrolidin-1-yl-5,6,7,8-tetrahydropyrido[4,3-d]pyrimidine], the Ki was less than 1 µM.

For the compound `O=C(CN1CCc2[nH]c(=O)ccc2C1)N1CCN(C2CCCCC2)CC1` [Compound 136, 6-[2-(4-cyclohexylpiperazin-1-yl)-2-oxoethyl]-5,6,7,8-tetrahydro-1,6-naphthyridin-2(1H)-one], the inhibition constant (Ki) is less than 1 µM.

As for `CC1CN(c2ncc3c(n2)CCN(CC(=O)N2CCN(C4CCC4)CC2)C3)CC(C)O1` (stereo not drawn) [Compound 187, 6-[2-(4-cyclobutylpiperazin-1-yl)-2-oxoethyl]-2-(2,6-dimethylmorpholin-4-yl)-5,6,7,8-tetrahydropyrido[4,3-d]pyrimidine], the inhibition constant Ki was less than 1 µM.

With `CCOC(=O)c1ccc2c(c1)CCN(CC(=O)N1CCN(C3CCC3)CC1)C2` [Compound 86, ethyl 2-[2-(4-cyclobutylpiperazin-1-yl)-2-oxoethyl]-1,2,3,4-tetrahydroisoquinoline-6-carboxylate], the Ki was less than 1 µM.

Still in this assay, the particulars now being: assay of Example 7; "*" in Ki of Table II.
`COc1ccc(-c2nc3c(s2)CN(CC(=O)N2CCN(C4CCC4)CC2)CC3)c(OC)c1` [Compound 340, 5-[2-(4-cyclobutylpiperazin-1-yl)-2-oxoethyl]-2-(2,4-dimethoxyphenyl)-4,5,6,7-tetrahydro[1,3]thiazolo [5,4-c]pyridine]: the inhibitory constant (Ki) is less than 1 µM.

Take `Cc1cc(C)cc(-c2nc3c(s2)CN(CC(=O)N2CCN(C4CCC4)CC2)CC3)c1` [Compound 310, 5-[2-(4-cyclobutylpiperazin-1-yl)-2-oxoethyl]-2-(3,5-dimethylphenyl)-4,5,6,7-tetrahydro[1,3]thiazolo [5,4-c]pyridine]: the inhibition constant (Ki) was less than 1 µM.

On to `CCC(C)N1CCN(C(=O)CN2CCc3cc(-c4ccc(S(C)(=O)=O)cc4)ccc3C2)CC1` (stereo not drawn) [Compound 396, 2-[2-(4-sec-butylpiperazin-1-yl)-2-oxoethyl]-6-[4-(methylsulfonyl)phenyl]-1,2,3,4-tetrahydroisoquinoline], for which the inhibition constant (Ki) was less than 1 µM.

As for `O=C(CN1CCc2cc(-c3ccc4c(c3)OCO4)ccc2C1)N1CCN(C2CCC2)CC1` [Compound 377, 6-(1,3-benzodioxol-5-yl)-2-[2-(4-cyclobutylpiperazin-1-yl)-2-oxoethyl]-1,2,3,4-tetrahydroisoquinoline], the Ki is less than 1 µM.

Regarding `O=C(CN1CCc2nc(-c3ccc4c(c3)OCO4)sc2C1)N1CCN(C2CCC2)CC1` [Compound 328, 2-(1,3-benzodioxol-5-yl)-5-[2-(4-cyclobutylpiperazin-1-yl)-2-oxoethyl]-4,5,6,7-tetrahydro[1,3]thiazolo [5,4-c]pyridine], the Ki is less than 1 µM.

With `CN(C)c1ccc(-c2nc3c(s2)CN(CC(=O)N2CCN(C4CCC4)CC2)CC3)cc1` [Compound 331, 4-{5-[2-(4-cyclobutylpiperazin-1-yl)-2-oxoethyl]-4,5,6,7-tetrahydro[1,3]thiazolo [5,4-c]pyridin-2-yl}-N,N-dimethylaniline], the inhibition constant (Ki) is less than 1 µM.

On to `O=C(CN1CCc2nc(-c3ccc(F)c(Cl)c3)sc2C1)N1CCN(C2CCC2)CC1` [Compound 346, 2-(3-chloro-4-fluorophenyl)-5-[2-(4-cyclobutylpiperazin-1-yl)-2-oxoethyl]-4,5,6,7-tetrahydro[1,3]thiazolo [5,4-c]pyridine], for which the Ki was less than 1 µM.

Consider `Cc1ccc(-c2nc3c(s2)CN(CC(=O)N2CCN(C4CCC4)CC2)CC3)cc1C` [Compound 308, 5-[2-(4-cyclobutylpiperazin-1-yl)-2-oxoethyl]-2-(3,4-dimethylphenyl)-4,5,6,7-tetrahydro[1,3]thiazolo [5,4-c]pyridine], for which the Ki was less than 1 µM.

In the case of `CS(=O)(=O)c1cccc(-c2ccc3c(c2)CCN(CC(=O)N2CCN(C4CCCC4)CC2)C3)c1` [Compound 394, 2-[2-(4-cyclopentylpiperazin-1-yl)-2-oxoethyl]-6-[3-(methylsulfonyl)phenyl]-1,2,3,4-tetrahydroisoquinoline], the inhibition constant Ki is less than 1 µM.

For `O=C(CN1CCc2c(cnn2-c2ccc(O)nn2)C1)N1CCN(C2CCC2)CC1` [Compound 291, 6-{5-[2-(4-cyclobutylpiperazin-1-yl)-2-oxoethyl]-4,5,6,7-tetrahydro-1H-pyrazolo[4,3-c]pyridin-1-yl}pyridazin-3-ol], the Ki was less than 1 µM.

The values are drawn from patent US20110082130A1 (LIGAND PHARMACEUTICALS, INC., priority 2006, published 2011).
